Consider 1 molecule from paper PMC6562543 (Marine Drugs, 2019).

Structures are written as SMILES.

The test has as its system CaV2.2 channels (α1B, α2δ1, and β3). The class given is cell-based, rat.

For orientation: Hill slope means a measure of the steepness of the concentration-response curve. For `CSCC[C@@H]1NC(=O)[C@H](CC(C)C)NC(=O)[C@H](CCCNC(=N)N)NC(=O)[C@H](CO)NC(=O)[C@@H]2CSSC[C@@H]3NC(=O)[C@H](CO)NC(=O)CNC(=O)[C@H]([C@@H](C)O)NC(=O)[C@H](CSSC[C@H](N)C(=O)N[C@@H](CCCCN)C(=O)NCC(=O)N[C@@H](CCCCN)C(=O)NCC(=O)N[C@@H](C)C(=O)N[C@@H](CCCCN)C(=O)N2)NC(=O)[C@H](CSSC[C@@H](C(N)=O)NC(=O)[C@H](CCCCN)NC(=O)CNC(=O)[C@H](CO)NC(=O)[C@H](CCCNC(=N)N)NC3=O)NC(=O)[C@H](CC(=O)O)NC(=O)[C@H](Cc2ccc(O)cc2)NC1=O` [MVIIA, ω-Conotoxin MVIIA], the Hill slope was determined as 1.296. The “inhibitory effect on CaV2.2 channel” value (2 µM) is “more than 90%”. Also, the “reduction of ICa amplitude” value (SEM) is 98.24 ± 0.708%.
